Reference: article PMC4210897, “Antimicrobial Activity of Peptides Derived from Olive Flounder Lipopolysaccharide Binding Protein/Bactericidal Permeability-Increasing Protein (LBP/BPI)” (Marine Drugs, 2014)
Where no end group is shown, it is not given here.

Tests used:
V. harveyi = assay: URDA of non-heated and heated peptides; format: cell-based, Vibrio harveyi; conditions: non-heated and after 100 °C for 10 min
S. iniae = assay: URDA of non-heated and heated peptides; format: cell-based, Streptococcus iniae; conditions: non-heated and after 100 °C for 10 min
Description: (§1) The antimicrobial activity of the purified peptide was assessed as described previously. We tested the synthetic peptides against several Gram-positive bacteria including two Bacillus subtilis strains, Micrococcus luteus, Staphylococcus aureus, and Streptococcus iniae, Gram-negative bacteria including three Escherichia coli strains, Aeromonas hydrophila, Edwardsiella tarda, Pseudomonas aeruginosa, Vibrio parahemolyticus, and Salmonella enteric, as well as the yeast Candida albicans. All strains were grown overnight for 18 h in trypticase soy broth (TSB) or sabouraud dextrose broth (SDB) at the appropriate temperature (25 °C for A. hydrophila, E. tarda, P. aeruginosa, S. iniae, and V. parahemolyticus and 37 °C for the other strains). After an overnight incubation, the bacterial and C. albicans suspensions were diluted to a McFarland turbidity standard of 0.5 (Vitek Colorimeter #52-1210; Hach, Loveland, CO, USA) corresponding to ~10^8 CFU/mL for bacteria and ~10^6 CFU/mL for C. albicans. One-half milliliter of diluted bacterial or C. albicans suspension was added to 9.5 mL of underlay gel containing 5 × 10^6 CFU/mL or 5 × 10^4 CFU/mL in 10 mM phosphate buffer (PB; pH 6.6) with 0.03% TSB or 0.03% SDB and 1% Type I (low EEO) agarose. The purified peptide was serially diluted twofold in 5 μL of acidified water (0.01% HAc), and each dilution was added to 2.5-mm-diameter wells made in the 1-mm-thick underlay gels. After incubation for 3 h at either 25 °C (for A. hydrophila, E. tarda, P. aeruginosa, S. iniae, and V. parahemolyticus) or 37 °C (the other strains), the bacterial or yeast suspension was overlaid with 10 mL of double-strength overlay gel containing 6% TSB or 6% SDB with 10 mM PB (pH 6.6) in 1% agarose. Plates were incubated for an additional 18–24 h, after which the clearing zone diameters were measured. After subtracting the diameter of the well, the clearing zone diameter was expressed in units (0.1 mm = 1 U).
(§2) To investigate the effect of temperature on ofLBP analogs, antimicrobial activity was tested using an ultrasensitive radial diffusion assay (URDA) against two bacteria including V. harveyi and S. iniae, as well as a yeast, C. albicans. To explore thermal stability, the ofLBP analogs were incubated at 100 °C for 10 min. After heat treatment, the peptides were cooled and used for URDA as described above.

λ-HindIII-digested DNA = assay: DNA-binding assay (gel retardation, EMSA); conditions: λ-HindIII-digested DNA 50 ng, 5 min room temperature, 1.0% agarose; for Electrophoretic mobility of DNA at 0.625 μg peptide: peptide 0.625 μg
Description: DNA binding assays were performed as described previously with minor modifications. This test assessed peptide-DNA binding by examining the inhibition of the rate of migration of DNA bands through agarose gels. A commercial molecular weight marker, λ-HindIII-digested DNA (50 ng) (Roche, Basel, Switzerland), was mixed with varying amounts of peptide (0 μg, 0.156 μg, 0.313 μg, 0.625 μg, and 1.25 μg) in 0.01% acetic acid, incubated at room temperature for 5 min, and then electrophoresed in 1.0% agarose gels containing 0.5 μg/mL ethidium bromide (EtBr).

[1] = tested on: human red blood cells (RBCs, blood type O); assay: Hemolytic activity assay; format: cell-based; conditions: 3% hematocrit, 60 min, 37 °C; for Hemolysis against RBCs up to 100 μg/mL: A405, up to concentrations of 100 μg/mL, triplicate averaged
Description: The hemolytic activity of the peptides was determined using human red blood cells (RBCs, blood type O). The RBCs were collected from citric acid-treated blood by centrifugation at 3000× g for 5 min and washed three times with 10 mM PB (pH 7.4) containing 150 mM NaCl to remove the plasma and buffy coat. A suspension of 3% hematocrit in buffer with or without peptides was incubated for 60 min at 37 °C. Hemolysis was expressed as the hemoglobin content obtained from the absorbance of the supernatant at 405 nm after centrifugation at 3000× g for 5 min. A 100% hemolysis was determined based on hemoglobin release after the addition of 0.1% Triton X-100. The hemolysis percentage of the peptides was calculated using the following formula: % Hemolysis = [(Abs405nm in the peptide solution − Abs405nm in buffer)/(Abs405nm in 0.1% Triton X-100 − Abs405nm in buffer)] × 100
Hemolytic assays were performed in triplicate and the results were averaged.

DNA polymerase = conditions: PCR of E. coli 16S rDNA; for DNA polymerase inhibitory ability: 100 ng genomic DNA, 30 cycles
Description: The ofLBP analogs were dissolved in 0.01% acetic acid at a concentration of 1000 μg/mL. To assess PCR inhibition, various concentrations of the ofLBP analogs (2.5, 1.25, 0.625, and 0.313 μg/mL) were added to the respective reaction mixtures. E. coli genomic DNA (100 ng) was used as a template for PCR with the following primer pairs: 16S-F1, 5′-[…]-3′ and 16S-R3, 5′-[…]-3′. The predicted amplicon is ~1.5 kb in length. Each PCR comprised 30 cycles each of 30 s at 95 °C, 30 s at 55 °C, and 1 min at 72 °C. After PCR, all amplicons were electrophoresed in 1.0% agarose gels containing EtBr.

C. albicans = assay: URDA of non-heated and heated peptides; format: cell-based, Candida albicans; conditions: non-heated and after 100 °C for 10 min
Description: as §1, §2

E. coli D31 = assay: URDA, MEC; format: cell-based, Escherichia coli; conditions: E. coli D31, Gram −, pH 6.6, 37 °C, triplicate averaged
Description: as §1
All tested bacteria and yeast were prepared as described above. The minimal effective concentration (MEC, μg/mL) of the synthetic peptides was calculated as the x-intercept of a plot of units against the log10 of the peptide concentration. […] The antimicrobial assay was performed in triplicate and the results were averaged.

E. coli ML35p = assay: Killing kinetic assay; format: cell-based, Escherichia coli; conditions: 10^6 CFU/mL, 37 °C; for Time to kill E. coli ML35p at 5× MEC: triplicate averaged
Description: To determine the killing activities of ofLBP-derived analogs, kinetic studies were performed using B. subtilis KCTC1021 and E. coli ML35p at 1× MEC and 5× MEC concentrations. Overnight culture of B. subtilis KCTC1021 and E. coli ML35p were diluted in TBS to a cell density of 10^6 CFU/mL and 1 mL of each suspension was exposed to each ofLBP-derived analog and incubated at 37 °C overnight. The resulting colonies were counted. Percent killing was calculated as the proportion of live bacteria at a given time point following the addition of peptide compared to the number of bacteria present prior to the addition of peptide. Control cultures of each bacterium were incubated without any peptide and assayed at time points corresponding to the test culture assays to ensure no spontaneous loss of viability. Killing kinetic assays were also performed in triplicate, and the results were averaged.

Substance	Antimicrobial activity against V. harveyi (URDA) (V. harveyi)	Antimicrobial activity against S. iniae (URDA) (S. iniae)	Electrophoretic mobility of DNA at 0.625 μg peptide (λ-HindIII-digested DNA)	Electrophoretic mobility of DNA at 1.25 μg peptide (λ-HindIII-digested DNA; peptide 1.25 μg)	Hemolysis against RBCs up to 100 μg/mL [1]	DNA polymerase inhibitory ability (DNA polymerase)	Antimicrobial activity against C. albicans (URDA) (C. albicans)	Minimal Effectives Concentration (E. coli D31) [µg/mL]	DNA polymerase inhibition at 1.25 μg (DNA polymerase; 1.25 μg peptide, compared to ofLBP 6A)	Hemolytic activity at 50 μg/mL [1]	Killing of E. coli ML35p at 1× MEC (E. coli ML35p)	Time to kill E. coli ML35p at 5× MEC (E. coli ML35p) [min]	DNA polymerase inhibition at all tested concentrations (DNA polymerase; 0.313–2.5 μg peptide)	Hemolytic activity from 50–100 μg/mL ([1]; concentrations of 50–100 μg/mL, 100% = 0.1% Triton X-100)
KLVKTQLKVLK [ofLBP 4N]	did not show any antimicrobial activity	did not show any antimicrobial activity	slightly inhibited	almost completely inhibited	did not cause hemolysis	no DNA polymerase inhibitory ability	did not show any antimicrobial activity							
KLVKTWLKVLK [ofLBP 5A]			almost completely inhibited		did not cause hemolysis	strong DNA polymerase inhibitory ability	significant activity	0.9	less inhibitory activity					
MKLVKTWLKVLK-NH2 [ofLBP 6A]	significant activity	significant activity	almost completely inhibited			strong DNA polymerase inhibitory ability	significant activity	2.6		did not show significant hemolytic activity	did not kill	≤ 60	complete inhibitory activity	
Piscidin 1 [reference compound]								2.0			did not kill	≤ 40		
RFPGLMMKLLV-NH2 (C-terminus assumed) [ofLBP 1N]		significant activity					significant activity	1.3		did not show significant hemolytic activity				
RFPKLMMKLLV-NH2 [ofLBP 2A]		significant activity					significant activity	0.5		did not show significant hemolytic activity				28%–50%
